What follows are compounds tested on FMOC25_1 (patient-derived low-grade serous ovarian cancer cells) (assay: drug sensitivity score (DSS3, normalised partial AUC of % inhibition dose-response) (DSS (score)); higher = more sensitive (stronger inhibition of viability); extreme values may be limits of the assay). Settings: 72 h; library: FO4B; assay format: 2D, 384-well, CellTiter-Glo.
Procedure, shortened: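 Early-passage (under 10) patient-derived ovarian cancer cells were dispensed onto 384-well flat clear-bottom plates pre-plated with compounds at five concentrations spanning a 10,000-fold range, then incubated 72 h at 37 °C, 5% CO2. Viability was read with CellTiter-Glo, and the data were processed in Breeze. The drug sensitivity score is a partial area under the percent-inhibition dose-response curve divided by the log of the upper asymptote, with higher values meaning greater sensitivity.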

Row | SMILES | drug sensitivity score
1 | CCCCC/C=C/C=C1/C(=O)C=C[C@@H]1C/C=C\CCCC(=O)O [15D-PGJ2] | 0
2 | O=C(O)CCCc1ccc(N(CCCl)CCCl)cc1 [Chlorambucil] | 0
3 | O=C(c1ccc(/C=C/c2n[nH]c3ccccc23)cc1)N1CCNCC1 [KW-2449] | 0
4 | Cn1cc(-c2ccc3nnc(C(F)(F)c4ccc5ncccc5c4)n3n2)cn1 | 0
5 | Cc1ccc2nc(CN(CCN(Cc3nc4ccc(C)cc4[nH]3)Cc3nc4ccc(C)cc4[nH]3)Cc3nc4ccc(C)cc4[nH]3)[nH]c2c1 | 3.9
6 | O=P1(NCCCl)OCCCN1CCCl (stereo not drawn) [Ifosfamide] | 0
7 | O=c1ncn2nc(Sc3ccc(F)cc3F)ccc2c1-c1c(Cl)cccc1Cl [VX 745] | 0
8 | O=C1NC(=O)/C(=C/c2ccc3nccc(-c4ccncc4)c3c2)S1 | 9.8
9 | Cc1nc(C(=O)NCC(=O)O)c(O)c2ccc(Oc3ccccc3)cc12 [FG-4592] | 0
10 | CCn1c(=O)c(-c2cc[nH]n2)cc2c(C)nc(N)nc21 [Voxtalisib] | 10.6
11 | CNC(=O)c1ccc(-c2cnc3ncc(Cc4ccc5ncccc5c4)n3n2)cc1F [NVP-INC280] | 0
12 | Cc1ccccc1C(C(=O)NC1CCCCC1)N(C(=O)Cn1ccnc1C)c1cccc(F)c1 (stereo not drawn) [AGI-5198] | 0
13 | Cc1c(NC(=O)OC[C@@H]2COCCN2)cn2ncnc(Nc3ccc4c(cnn4Cc4cccc(F)c4)c3)c12 | 9.1
14 | N#Cc1c(Oc2ccc(F)c(NC(=O)Cc3cccc(C(F)(F)F)c3)c2)ccc2nc(NC(=O)C3CC3)sc12 [TAK-632] | 4.4
15 | CC(C)CC(=O)Nc1n[nH]c2c1CN(C(=O)C1CCN(C)CC1)C2(C)C | 5.5
16 | O=C(O)c1ccc(Nc2ncc3c(n2)-c2ccc(Cl)cc2C(c2c(F)cccc2F)=NC3)cc1 [MLN-8054] | 0
17 | N[C@@H](Cc1ccc(N(CCCl)CCCl)cc1)C(=O)O [Melphalan] | 0
18 | Cn1c(CCCC(=O)O)nc2cc(N(CCCl)CCCl)ccc21 [Bendamustine] | 0
19 | CN(N=O)C(=O)N[C@@H](C=O)[C@@H](O)[C@H](O)[C@H](O)CO [Streptozocin] | 0
20 | CN(C)CCN1C(=O)c2cccc3cc(N)cc(c23)C1=O [Amonafide] | 6.8
21 | CCOc1cc2ncc(C#N)c(Nc3ccc(F)c(Cl)c3)c2cc1NC(=O)/C=C/CN(C)C [Pelitinib] | 13.1
22 | CCc1nc(-c2cccc(C)c2)c(-c2ccnc(NC(=O)c3ccccc3)c2)s1 [TAK-715] | 0
23 | CNNCc1ccc(C(=O)NC(C)C)cc1 [Procarbazine] | 0
24 | COc1cc(F)c(F)c(Nc2ccc(I)cc2F)c1NS(=O)(=O)C1(C[C@H](O)CO)CC1 [Refametinib] | 14.8
25 | C[C@@H]1C[C@H]2O[C@@H]2/C=C\C=C\C(=O)Cc2c(Cl)c(O)cc(O)c2C(=O)O1 [Radicicol] | 3.2
26 | Cc1[nH]c(/C=C2\C(=O)Nc3ccccc32)c(C)c1CCC(=O)O [Orantinib] | 2.6

Row | SMILES | drug sensitivity score
27 | C[C@]12C=CC(=O)C=C1CC[C@@H]1[C@@H]2C(=O)C[C@@]2(C)[C@H]1CC[C@]2(O)C(=O)CO [Prednisone] | 0
28 | CCn1nnc2c(N3CCOCC3)nc(-c3ccc(NC(=O)Nc4ccc(C(=O)N5CCN(C)CC5)cc4)cc3)nc21 [PKI-402] | 19.1
29 | Cc1cc(C(=O)NOCCO)c(Nc2ccc(I)cc2F)n(C)c1=O [AZD-8330] | 22.2
30 | Cc1cc(C)c(/C=C2\C(=O)Nc3ccccc32)[nH]1 [Semaxanib] | 4.4
31 | CNC(=O)c1cccc(-c2ccc3c(N4CCOC[C@@H]4C)nc(N4CCOC[C@@H]4C)nc3n2)c1 [AZD2014] | 20.5
32 | O=C(NC[C@H](O)CO)c1ccncc1Nc1ccc(I)cc1F [Pimasertib] | 14.7
33 | O=C(Nc1cccc(Cl)c1)Nc1ncc(CCNc2ncnc3ccsc23)s1 [SNS-314] | 0.4
34 | Cn1c(Nc2ccc(C(F)(F)F)cc2)nc2cc(Oc3ccnc(-c4ncc(C(F)(F)F)[nH]4)c3)ccc21 [RAF265] | 8.1
35 | O=C(O)CSc1cc(NS(=O)(=O)c2ccc(Br)cc2)c2ccccc2c1O [UMI-77] | 14.3
36 | CN(c1ccccc1CNc1nc(Nc2ccc3c(c2)CC(=O)N3)ncc1C(F)(F)F)S(C)(=O)=O | 7
37 | CCN1CCN(c2ccc(Nc3cc(N(C)C(=O)Nc4c(Cl)c(OC)cc(OC)c4Cl)ncn3)cc2)CC1 [NVP-BGJ398] | 0
38 | COc1ccc(-c2cc3c(C)nc(N)nc3n([C@H]3CC[C@H](OCCO)CC3)c2=O)cn1 | 23.8
39 | c1ccc([C@H]2CN3CCSC3=N2)cc1 [Levamisole] | 0
40 | COC1=CC(c2cc3ccccc3[nH]2)=N/C1=C\c1[nH]c(C)cc1C [Obatoclax] | 1.8
41 | O=C(CCBr)N1CCN(C(=O)CCBr)CC1 [Pipobroman] | 1.6
42 | C[C@]12CC[C@@H]3c4ccc(OC(=O)N(CCCl)CCCl)cc4CC[C@H]3[C@@H]1CC[C@@H]2O [Estramustine] | 0
43 | CN(C[C@@H]1COCCO1)S(=O)(=O)Nc1ccc2ccc3ncc(-c4cnn(C)c4)cc3c(=O)c2c1 [MK-2461] | 2.8
44 | CC(=O)NCC(=O)N1[C@@H]2CC[C@H]1c1ccc(Nc3ncc(C(F)(F)F)c(NC4CCC4)n3)cc12 | 9.1
45 | O=c1cc(N2CCOCC2)oc2c(-c3ccccc3)cccc12 | 9.1
46 | CNC(=O)c1cc(Oc2ccc(NC(=O)Nc3cc(C(C)(C)C)nn3-c3ccc4ncccc4c3)c(F)c2)ccn1 [Rebastinib] | 0
47 | C[C@]12O[C@H](C[C@]1(O)CO)n1c3ccccc3c3c4c(c5c6ccccc6n2c5c31)CNC4=O [Lestaurtinib] | 5.3
48 | COc1ccc2c(OCc3nnc4ccc(-c5ccccc5)nn34)ccnc2c1 [AMG-208] | 1.3
49 | S=P(N1CC1)(N1CC1)N1CC1 [Thio-TEPA] | 0.7
50 | COc1cc2c(Nc3ccc(Cl)c(Cl)c3F)ncnc2cc1OC[C@@H]1C[C@@H]2CN(C)C[C@@H]2C1 [XL-647] | 9.1
51 | CN[C@@H](C)C(=O)N[C@H](C(=O)N1CCC[C@H]1c1nc(C(=O)c2ccc(F)cc2)cs1)C1CCCCC1 [LCL161] | 7.7
52 | CCN1CCN(Cc2ccc(-c3cc4c(N[C@H](C)c5ccccc5)ncnc4[nH]3)cc2)CC1 [NVP-AEE788] | 6

Row | SMILES | drug sensitivity score
53 | CC[C@@]1(O)C(=O)OCc2c1cc1n(c2=O)Cc2cc3ccccc3nc2-1 [Camptothecin] | 17
54 | CS(=O)(=O)N1CCc2c(-c3cnc(N)nc3)nc(N3CCOCC3)nc21 | 10.5
55 | CCc1cc(Nc2nccc(-c3c(-c4ccc(OC)c(C(=O)Nc5c(F)cccc5F)c4)nc4ccccn34)n2)c(OC)cc1N1CCC(N2CCN(S(C)(=O)=O)CC2)CC1 | 3.9
56 | C/C(=C\c1csc(C)n1)[C@@H]1C[C@@H]2O[C@]2(C)CCC[C@H](C)[C@H](O)[C@@H](C)C(=O)C(C)(C)[C@@H](O)CC(=O)O1 [Patupilone] | 9.3
57 | CC(C)Oc1cc(Nc2nc(N[C@@H](C)c3ccc(F)cn3)ncc2Cl)n[nH]1 [AZ-23] | 0
58 | C#Cc1cccc(Nc2ncnc3cc(OC)c(OCCCCCCC(=O)NO)cc23)c1 [CUDC-101] | 17
59 | COc1cc(C(=O)NC2CCN(C)CC2)c(F)cc1Nc1ncc2c(n1)N(C1CCCC1)CC(F)(F)C(=O)N2C [TAK-960] | 0
60 | O=C(Cc1ccc(-c2ccc(OCCN3CCOCC3)cc2)cn1)NCc1ccccc1 [KX2-391] | 12.7
61 | COc1cc2c(cc1O)CC[C@@H]1[C@@H]2CC[C@]2(C)[C@@H](O)CC[C@@H]12 [2-methoxyestradiol] | 4.1
62 | Oc1c2ccccc2c2c3c(cccc13)N=N2 | 4.3
63 | O=S(=O)(c1cccc2cnccc12)N1CCCNCC1 [Fasudil] | 0
64 | Cc1nc(N)sc1-c1ccnc(Nc2ccc(N3CCOCC3)cc2)n1 [CYC-116] | 6.4
65 | CN(C)/N=N/c1[nH]cnc1C(N)=O [Dacarbazine] | 0
66 | O=NN(CCCl)C(=O)NC1CCCCC1 [Lomustine] | 0
67 | CNC(=O)c1ccc(N2C(=S)N(c3cnc(C#N)c(C(F)(F)F)c3)C(=O)C23CCC3)cc1F [ARN 509] | 0
68 | Cn1c(=O)c(F)c(Nc2ccc(I)cc2F)c2c(=O)n(C[C@@H](O)CO)cnc21 [TAK-733] | 13.2
69 | OCCn1cc(-c2cnc3nnn(Cc4ccc5ncccc5c4)c3n2)cn1 | 0
70 | O=C(NOCC1CC1)c1ccc(F)c(F)c1Nc1ccc(I)cc1Cl | 7.5
71 | COc1ccc(C2=N[C@@H](c3ccc(Cl)cc3)[C@@H](c3ccc(Cl)cc3)N2C(=O)N2CCNC(=O)C2)c(OC(C)C)c1 [Nutlin-3] | 3.5
72 | CCc1c2c(nc3ccc(OC(=O)N4CCC(N5CCCCC5)CC4)cc13)-c1cc3c(c(=O)n1C2)COC(=O)[C@]3(O)CC [Irinotecan] | 5.1
73 | CC(C)n1nc(-c2ccc3oc(N)nc3c2)c2c(N)ncnc21 [MLN-0128] | 21
74 | CCNC(=O)Nc1ccc(-c2nc3c(c(N4CCOC[C@@H]4C)n2)CCN(C2COC2)C3)cc1 [RG-7603] | 7.8
75 | Cn1cc(-c2ccc3nnc(Sc4ccc5ncccc5c4)n3n2)cn1 [SGX-523] | 0
76 | CCN(CC)C(=S)SSC(=S)N(CC)CC [Disulfiram] | 3.7
77 | CN1CCC(COc2cnc(-c3cccc(Cn4nc(-c5cccc(C#N)c5)ccc4=O)c3)nc2)CC1 | 0
78 | O=C(Nc1cccc(C(F)(F)F)c1)Nc1cc(S(=O)(=O)NC2CC2)ccc1-c1ccsc1 [AGI-6780] | 0.4

Source: the supplement of paper PMC9938120
